Data as given in patent publication US10183015B2, “Heterocyclic compounds and methods of use” (Medivation Technologies LLC, priority 2015, dated 2019).
Values joined by “and” are separate entries in the source; they are usually repeats but may differ in a detail not shown here. Identical values can stand only once.

How the values were obtained:
[1] = test system: SREBP; experiment: SREBP-responsive promoter luciferase reporter assay in HepG2_LSSprom cells; assay type: cell-based; conditions: 6 hours of treatment, medium without serum; read-out: IC50 for luciferase expression
Protocol: HepG2_LSSprom cells were cultured in DMEM with 10% fetal bovine serum and 1% penicillin/streptomycin for 24 hours. Cells were then treated with increasing concentrations of Compound #37 or an equal volume of DMSO in culture medium without serum. Luciferase expression was measured and compared after 6 hours of treatment.

[2] = test system: 60% high fat Paigen diet induced NASH mouse model; experiment: Short-term (21 day) Paigen-diet NASH mouse model: plasma ALT, AST, triglycerides, cholesterol, free fatty acids; assay type: in vivo
Protocol: (§1) To investigate whether Compound #37 prevents the development of pathology associated with NASH and steatosis in an acute exploratory disease model, a study was conducted using a diet-induced acute liver steatosis model in mice. As described below, in this study, C57BL/6J mice were initiated on the Paigen diet and simultaneously treated with Compound #37 (5, 20, and 40 mg/kg/day) or vehicle control (20% HPβCD 10 mL/kg/day) by oral gavage for 21 days.
(§2) After acclimation, 8-week old male C57Bl/6J mice (Charles River) weighing about 25 g were randomized in 4 groups according their body weight and treated once daily around noon by oral gavage with vehicle, or Compound #37 at various for 21 days as follows: Group 1: vehicle-20% (2-hydroxypropyl)-β-cyclodextrin (HP-β-CD) (n=10); Group 2: Compound #37, 5 mg/kg (n=10) Group 3: Compound #37, 20 mg/kg (n=10) Group 4: Compound #37, 40 mg/kg (n=10). During the treatment period, body weight and food intake (measured over 24h) were measured 3 times per week and once a week, respectively. During the acclimation, all mice were fed a standard diet (Special Diets Services RM1 (E), product no. 801492) and tap water ad libitum. After the acclimation period, mice were fed until the end of the experiment with a 60% high fat Paigen diet (60 kcal % fat, 1.25% cholesterol, and 0.5% cholate; D11061901, Research Diet) and tap water ad libitum.
One hour after the last dosing (noon), blood was collected by retro-orbital bleeding (maximal volume on EDTA) under isoflurane anesthesia to measure plasma triglycerides, total cholesterol, non-esterified fatty acid, ALT and AST. Mice were then sacrificed by cervical dislocation, and livers were harvested and weighed. Liver samples from the same lobe were dissected, frozen, and analyzed as described below.
Data Analysis. Values are presented as mean±standard error of the mean (sem). To assess the compound effect, treated groups were compared to vehicle with a 1-way ANOVA+Dunnett's post-test. […] For RT-qPCR and score Kruskall-Wallis test was performed with Dunns post-test. For body weight evolution the treated groups were compared to vehicle with a 2-way ANOVA with Bonferroni post-test. For each test, a p<0.05 was considered significant.

[3] = test system: LDLR; experiment: Short-term Paigen-diet NASH mouse model: hepatic LDLR gene expression (RT-qPCR); assay type: in vivo; conditions: liver; for DDct: LDLR Dct relative to vehicle mean; for Dct: LDLR minus 18S; for 2DDct: LDLR relative expression to vehicle group, normalized to 18S; for LDLR: raw RT-qPCR value
Protocol: as §1, §2
Gene expression analysis. Hepatic expression levels of genes involved in lipid metabolism (FAS, SREBP1, ACC1, SCD1), cholesterol metabolism (HMG-CoAR, LDLR), SREBP proteolysis (SCAP, INSIG1), ER stress (PERK), oxidative stress (NRF2), inflammation (MCP-1), and fibrosis (collagen 1α1) were quantified by RTqPCR. Expression level was normalized to 18S gene expression and relative expression to vehicle group was calculated with the […] method.

[4] = 5 mg/kg p.o. daily, 21 days of diet and treatment, group mean
[5] = 5 mg/kg p.o. daily, 21 days of diet and treatment, individual animals
[6] = 20 mg/kg p.o. daily, 21 days of diet and treatment, group mean
[7] = 20 mg/kg p.o. daily, 21 days of diet and treatment, individual animals
[8] = 40 mg/kg p.o. (stopped after 4 administrations), 9 days of diet, group mean
[9] = 40 mg/kg p.o. (stopped after 4 administrations), 9 days of diet, individual animals
[10] = Compound #37 5 mg/kg, group mean, n=10
[11] = Compound #37 5 mg/kg, individual animals, 5 mg/kg
[12] = Compound #37 20 mg/kg, group mean, n=6
[13] = Compound #37 20 mg/kg, individual animals, 20 mg/kg

## CC(C)Cc1cc(-c2nc(-c3ccc(NS(=O)(=O)C(F)(F)F)cc3Cl)cs2)ccn1 [Compound 37, N-(3-chloro-4-(2-(2-isobutylpyridin-4-yl)thiazol-4-yl)phenyl)-1,1,1-trifluoromethanesulfonamide]
[1]
  IC50: 2.7 µM
[2]; [4]
  ALT (U/L): 419.3 U/L
  AST (U/L): 449.4 U/L
  AST/ALT ratio: 1.2
[2]; [5]
  ALT (U/L): 382 U/L and 620 U/L and 346 U/L and 825 U/L and 267 U/L and 246 U/L and 255 U/L and 447 U/L and 435 U/L and 370 U/L
  AST (U/L): 350 U/L and 416 U/L and 710 U/L and 405 U/L and 286 U/L and 392 U/L and 481 U/L and 528 U/L and 477 U/L
  AST/ALT ratio: 0.92 and 1.20 and 0.86 and 1.52 and 1.16 and 1.54 and 1.08 and 1.21 and 1.29
[2]; [6]
  ALT (U/L): 403.5 U/L
  AST (U/L): 431.2 U/L
  AST/ALT ratio: 1.1
[2]; [7]
  ALT (U/L): 266 U/L and 587 U/L and 432 U/L and 413 U/L and 385 U/L and 338 U/L
  AST (U/L): 362 U/L and 467 U/L and 344 U/L and 615 U/L and 424 U/L and 375 U/L
  AST/ALT ratio: 1.36 and 0.80 (2×) and 1.49 and 1.10 and 1.11
[2]; [8]
  ALT (U/L): 7043.8 U/L
  AST (U/L): 2685.0 U/L
  AST/ALT ratio: 0.8
[2]; [9]
  ALT (U/L): 1095 U/L and 1160 U/L and 12560 U/L and 13360 U/L
  AST (U/L): 1165 U/L and 1555 U/L and 3900 U/L and 4120 U/L
  AST/ALT ratio: 1.1 and 1.3 and 0.3 (2×)
[2]; 40 mg/kg, 4 surviving animals, sacrifice on day 9
  mean AST and ALT: > 2500 U/L
[2]; 40 mg/kg, day 9
  ALT and AST levels: very high
[2]; Table B7, 5 mg/kg
  ALT (U/L) Mean: 419.30 U/L
  AST (U/L) Mean: 449.44 U/L
[2]; Table B7, 20 mg/kg
  ALT (U/L) Mean: 403.50 U/L
  AST (U/L) Mean: 431.17 U/L
[3]; [10]
  DDct: 0.18
  Dct: 12.8
  2DDct: 1.03
  LDLR: 25.1
[3]; [11]
  DDct: −0.92 and 0.13 and −0.60 and −0.98 and 1.46 and 1.39 and 0.04 and 0.33 and 0.52 and 0.37
  Dct: 11.74 and 12.79 and 12.06 and 11.68 and 14.12 and 14.05 and 12.7 and 12.99 and 13.18 and 13.03
  2DDct: 1.89 and 0.91 and 1.51 and 1.97 and 0.36 and 0.38 and 0.97 and 0.79 and 0.70 and 0.77
  LDLR: 25.2 and 25.9 and 23.67 and 25.03 and 26.15 and 27.4 and 24.3 and 24.78 and 24.32 and 24.15
[3]; [12]
  DDct: −0.09
  Dct: 12.6
  2DDct: 1.29
  LDLR: 24.8
[3]; [13]
  DDct: 0.38 and 0.91 and 0.32 and −1.22 and 0.42 and −1.37
  Dct: 13.04 and 13.57 and 12.98 and 11.44 and 13.08 and 11.29
  2DDct: 0.77 and 0.53 and 0.80 and 2.33 and 0.75 and 2.58
  LDLR: 25.95 and 25.86 and 25.18 and 24.47 and 24.57 and 22.55
